Measurements reported in patent US20040260721A1, “Methods and systems for creation of a coherence database” (priority 2003, published 2004).
Entries after “also recorded” stand apart in the source; their conditions may differ.

Experiments:
Saccharomyces cerevisiae = assay: Biochemical and gene expression profiling with pathway analysis of yeast treated with fungicidal drugs; type: cell-based; details: inhibitory dose; three replicate samples per drug; single harvest timepoint
Experimental: An experiment was performed to attempt to characterize four fungicidal drugs: Amphoteracin B, Ketaconazole, Fluconazole, and Posaconazole. Yeast samples (Saccharomyces cerevisiae) were treated with an inhibitory dose of each drug, using three replicate samples per drug, and harvested at a single timepoint. Biochemical profiling and gene expression profiling data were gathered on each yeast sample, and summarized and related to KEGG as described in Example 6.

liver = assay: Biochemical profiling (LC/MS) of livers from rats dosed with acetaminophen; type: in vivo; details: rat liver
Experimental: Acetaminophen overdose is one of the leading causes of liver failure. In this experiment, rats were dosed with acetaminophen and livers were harvested across a time course. Two doses of acetaminophen were used (50 mg/kg and 1500 mg/kg), as well as a control group that received no acetaminophen. The harvest times were 6, 18, 24, and 48 hours. Three rats (biological replicates) were in each treatment group, wherein a treatment group is defined as each combination of dose and time. […] Still referring to FIG. 2, the information recorded in data tables 221, 223, and 224 could also be recorded in data tables 218 and 219 (time_summary_set, and tissue_summary_set), thus allowing comparison by time or tissue type.
The resulting liver samples were extracted and analyzed by biochemical profiling (BCP) using LC/MS in both positive and negative modes, yielding a biochemical profile containing intensities on more than 100 compounds. Three technical replicates of each rat liver were analyzed. […]
A summary set was created for each treatment group, and the experimental information associated with that treatment group (treatment, dosage, timepoint, baseline of comparison) was recorded in the coherence database. […] Comparing a treated group to a control group created summaries that were recorded in the treatment_summary_set data table (FIG. 2, table 217) of the coherence database schema. […]

## OC(Cn1cncn1)(Cn1cncn1)c1ccc(F)cc1F [Fluconazole]
Saccharomyces cerevisiae
  comparison of pathway perturbations between treatments: perturbations that were unlike those of Amphoteracin B

## CC[C@@H]([C@H](C)O)n1ncn(-c2ccc(N3CCN(c4ccc(OC[C@@H]5CO[C@@](Cn6cncn6)(c6ccc(F)cc6F)C5)cc4)CC3)cc2)c1=O [Posaconazole]
Saccharomyces cerevisiae
  comparison of pathway perturbations between treatments: behaved most like Fluconazole; also recorded: perturbations that were unlike those of Amphoteracin B

## CC(=O)Nc1ccc(O)cc1 [acetaminophen]
liver; 50 mg/kg and 1500 mg/kg, harvest at 6, 18, 24 and 48 hours
  timepoint with most perturbed compounds (biochemical profile vs matched control): more compounds were perturbed at the 18 hour timepoint than any other
liver; 18 hour timepoint, pathway viewing tool (KEGG)
  pathway showing the primary metabolic disturbance: nitrogen metabolism pathway was most likely the source of the primary metabolic disturbance
